Measurements from patent US9908912B2, “Triclosan derivatives and uses thereof” (priority 2012, dated 2018).
Values after ≈ are worked out from the molar mass of the structure shown.

Experiments:
[1] = test system: Staph. haemolyticus OCC 2223; experiment: MIC in Nutrient Broth No. 2; type: cell-based, Staphylococcus haemolyticus; conditions: Nutrient Broth No. 2
Experimental: (§1) Bacteria species as indicated in Table 1 were incubated for approximately 24 hours at 37° C.
(§2) The tests were repeated with the addition of inducers. Methyl glycoside was the main inducer used, but other suitable inducers include isopropyl-β-D-thiogalactopyranoside, p-nitrophenyl-α-L-arabinopyranoside and p-nitrophenyl-β-D-xylopyranoside. Concentration of inducer in all cases was 100 μg/ml.

[2] = test system: Strep. viridans OCC 234; experiment: MIC in Nutrient Broth No. 2; type: cell-based, Streptococcus viridans; conditions: Nutrient Broth No. 2
Experimental: as §1, §2

[3] = test system: Ent. faecium; experiment: MIC in Nutrient Agar; type: cell-based, Enterococcus faecium; conditions: Nutrient Agar containing 0.1 μg/ml of inducer; 37° C., 24 hours
Experimental: (§3) The triclosan-glycosides were added to Nutrient Agar (Oxoid CM0003; Thermofisher Scientific) and organisms were transferred onto the plates surface using a multi-point inoculation device (Oxoid Cathra, Thermofisher Scientific). The latter is essentially a metal plate containing a number of needles. Each needle tip (usually 36 per plate) dips into an organism suspension (in phosphate buffered saline; PBS) and the needles are then moved over the agar plate and lowered onto its surface. In this way the growth of colonies of up to 36 different organisms can be observed on one plate.
(§4) Nutrient Agar No. 2 was prepared according to the manufacturers instructions, autoclaved and cooled to 50° C. Test compounds were then added as filter sterilised solutions (50:50 deionised water:ethanol), to give final concentrations from 256 μg/ml to 0 μg/ml in doubling dilutions. […] The mixtures were swirled then four plates (25 ml molten agar) were poured for each concentration. Plates were dried in a laminar flow cabinet then inoculated with overnight cultures of organisms that had been decimally diluted twice in sterile saline solution (approximately 10^7 cfu/ml) using a multi-point inoculator. Plates were then incubated at 37° C. for 24 hours. MICs were determined as the concentration at which no growth was observed.

[4] = test system: Kleb. pneumoniae; experiment: MIC in Nutrient Agar; type: cell-based, Klebsiella pneumoniae; conditions: Nutrient Agar containing 0.1 μg/ml of inducer; 37° C., 24 hours
Experimental: as §3, §4

[5] = test system: Ser. marcescens; experiment: MIC in Nutrient Agar; type: cell-based, Serratia marcescens; conditions: Nutrient Agar containing 0.1 μg/ml of inducer; 37° C., 24 hours
Experimental: as §3, §4

[6] = test system: S. aureus; experiment: MIC in Nutrient Agar; type: cell-based, Staphylococcus aureus; conditions: 8 strains; Nutrient Agar containing 0.1 μg/ml of inducer; 37° C., 24 hours
Experimental: as §3, §4

[7] = test system: Strep. pyogenes ATCC 19615; experiment: MIC in Nutrient Broth No. 2; type: cell-based, Streptococcus pyogenes; conditions: Nutrient Broth No. 2
Experimental: as §1, §2

[8] = test system: Aer. hydrophila; experiment: MIC in Nutrient Agar; type: cell-based, Aeromonas hydrophila; conditions: Nutrient Agar containing 0.1 μg/ml of inducer; 37° C., 24 hours
Experimental: as §3, §4

[9] = test system: Kleb. pneumoniae ATCC 10031; experiment: MIC in Nutrient Broth No. 2; type: cell-based, Klebsiella pneumoniae; conditions: Nutrient Broth No. 2
Experimental: as §1, §2

[10] = test system: Str. viridans; experiment: MIC in Nutrient Agar; type: cell-based, Streptococcus viridans; conditions: Nutrient Agar containing 0.1 μg/ml of inducer; 37° C., 24 hours
Experimental: as §3, §4

[11] = test system: Str. agalactiae; experiment: MIC in Nutrient Agar; type: cell-based, Streptococcus agalactiae; conditions: Nutrient Agar containing 0.1 μg/ml of inducer; 37° C., 24 hours
Experimental: as §3, §4

[12] = test system: Staph. epidermidis; experiment: MIC in Nutrient Broth No. 2; type: cell-based, Staphylococcus epidermidis; conditions: 3 strains, Nutrient Broth No. 2
Experimental: as §1, §2

[13] = test system: Str. pneumoniae; experiment: MIC in Nutrient Agar; type: cell-based, Streptococcus pneumoniae; conditions: Nutrient Agar containing 0.1 μg/ml of inducer; 37° C., 24 hours
Experimental: as §3, §4

[14] = test system: E. coli; experiment: MIC in Nutrient Agar; type: cell-based, Escherichia coli; conditions: 8 strains; Nutrient Agar containing 0.1 μg/ml of inducer; 37° C., 24 hours
Experimental: as §3, §4

[15] = test system: E. hermanii; experiment: MIC in Nutrient Agar; type: cell-based, Escherichia hermanii; conditions: Nutrient Agar containing 0.1 μg/ml of inducer; 37° C., 24 hours
Experimental: as §3, §4

[16] = test system: Strep. agalactiae OCC 182; experiment: MIC in Nutrient Broth No. 2; type: cell-based, Streptococcus agalactiae; conditions: Nutrient Broth No. 2
Experimental: as §1, §2

[17] = test system: Bacillus subtilis; experiment: MIC in Nutrient Agar; type: cell-based; conditions: Nutrient Agar containing 0.1 μg/ml of inducer; 37° C., 24 hours
[18] = test system: E. hermanii ATCC 33650; experiment: MIC in Nutrient Broth No. 2; type: cell-based, Escherichia hermanii; conditions: Nutrient Broth No. 2
Experimental: as §1, §2

[19] = test system: Salmonella; experiment: MIC in Nutrient Agar; type: cell-based; conditions: 11 strains; Nutrient Agar containing 0.1 μg/ml of inducer; 37° C., 24 hours
[20] = test system: Bacteria species as indicated in Table 1; experiment: MIC in Nutrient Broth No. 2 (over organisms of Table 1); type: cell-based; conditions: all strains of Citrobacter freundii, Enterobacter cloacae, Escherichia coli, Escherichia hermanii, Hafnia alvei, Klebsiella, Proteus, Salmonella, Staphylococcus
Experimental: as §1, §2

Structure (SMILES)	MIC ([1]; with inducer 100 μg/ml) [µg/mL]	MIC ([1]; without inducer) [µg/mL]	MIC ([2]; with inducer 100 μg/ml) [µg/mL]	MIC ([2]; without inducer) [µg/mL]	MIC [3] [µg/mL]	MIC [4] [µg/mL]	MIC [5] [µg/mL]	MIC [6] [µg/mL]	MIC ([7]; with inducer 100 μg/ml) [µg/mL]	MIC ([7]; without inducer) [µg/mL]	MIC [8] [µg/mL]	MIC ([9]; with inducer 100 μg/ml) [µg/mL]	MIC ([9]; without inducer) [µg/mL]	MIC [10] [µg/mL]	MIC [11] [µg/mL]	MIC ([12]; with inducer 100 μg/ml) [µg/mL]	MIC ([12]; without inducer) [µg/mL]	MIC [13] [µg/mL]	MIC [14] [µg/mL]	MIC [15] [µg/mL]	also measured
OC[C@H]1O[C@H](Oc2cc(Cl)ccc2Oc2ccc(Cl)cc2Cl)[C@H](O)[C@@H](O)[C@H]1O [α-D-Galactoside, triclosan-α-D-galactopyranoside]	32 (≈ 70.8 µM)	16 (≈ 35.4 µM)	>256	>256	>256	16 (≈ 35.4 µM)	>256	4 to 8	256 (≈ 567 µM)	256 (≈ 567 µM)	>256	1 (≈ 2.21 µM)	1 (≈ 2.21 µM)	>256	>256	4 to 256	8 to 32	256 (≈ 567 µM)	8 to 32	32 (≈ 70.8 µM)	MIC ([16]; with inducer 100 μg/ml): >256 µg/mL; MIC ([16]; without inducer): >256 µg/mL; MIC [17]: 128 µg/mL (≈ 283 µM); MIC ([18]; with inducer 100 μg/ml): 32 µg/mL (≈ 70.8 µM); MIC ([18]; without inducer): 32 µg/mL (≈ 70.8 µM)
OC[C@H]1O[C@H](Oc2cc(Cl)ccc2Oc2ccc(Cl)cc2Cl)[C@H](O)[C@@H](O)[C@@H]1O [α-D-Glucoside, triclosan-α-D-glucopyranoside]	1 (≈ 2.21 µM)	1 (≈ 2.21 µM)	64 (≈ 142 µM)	128 (≈ 283 µM)	128 (≈ 283 µM)	0.5 (≈ 1.11 µM)	>256	0.25 to 1	16 (≈ 35.4 µM)	32 (≈ 70.8 µM)	128 (≈ 283 µM)	1 (≈ 2.21 µM)	1 (≈ 2.21 µM)	64 (≈ 142 µM)	128 (≈ 283 µM)	1 (≈ 2.21 µM)	1 (≈ 2.21 µM)	32 (≈ 70.8 µM)	0.5 to 4	1 (≈ 2.21 µM)	MIC ([16]; with inducer 100 μg/ml): 128 µg/mL (≈ 283 µM); MIC ([16]; without inducer): 128 µg/mL (≈ 283 µM); MIC [17]: 16 µg/mL (≈ 35.4 µM); MIC [19]: 1 to 4 µg/mL; MIC ([18]; with inducer 100 μg/ml): 1 µg/mL (≈ 2.21 µM); MIC ([18]; without inducer): 1 µg/mL (≈ 2.21 µM)
OC[C@H]1O[C@H](Oc2cc(Cl)ccc2Oc2ccc(Cl)cc2Cl)[C@@H](O)[C@@H](O)[C@@H]1O [α-D-Mannoside, triclosan-α-D-mannopyranoside]	8 (≈ 17.7 µM)	8 (≈ 17.7 µM)	128 (≈ 283 µM)	128 (≈ 283 µM)	256 (≈ 567 µM)	16 (≈ 35.4 µM)	>256	4 to 8	32 (≈ 70.8 µM)	32 (≈ 70.8 µM)	256 (≈ 567 µM)	2 (≈ 4.43 µM)	4 (≈ 8.86 µM)	128 (≈ 283 µM)	128 (≈ 283 µM)	4 to 8	4 to 8	64 (≈ 142 µM)	8 to 64	16 (≈ 35.4 µM)	inhibition of growth at 64 μg/ml in Nutrient Broth [20]: inhibited; MIC ([16]; with inducer 100 μg/ml): 128 µg/mL (≈ 283 µM); MIC ([16]; without inducer): 128 µg/mL (≈ 283 µM); MIC [17]: 256 µg/mL (≈ 567 µM); MIC [19]: 16 to 32 µg/mL; MIC ([18]; with inducer 100 μg/ml): 8 µg/mL (≈ 17.7 µM); MIC ([18]; without inducer): 16 µg/mL (≈ 35.4 µM)
O[C@@H]1[C@H](Oc2cc(Cl)ccc2Oc2ccc(Cl)cc2Cl)OC[C@@H](O)[C@H]1O [β-D-Arabinoside, triclosan-β-D-arabinopyranoside]	16 (≈ 37.9 µM)	128 (≈ 304 µM)	128 (≈ 304 µM)	128 (≈ 304 µM)	256 (≈ 607 µM)	8 (≈ 19 µM)	>256	8 to 16	32 (≈ 75.9 µM)	32 (≈ 75.9 µM)	256 (≈ 607 µM)	8 (≈ 19 µM)	4 (≈ 9.49 µM)	128 (≈ 304 µM)	128 (≈ 304 µM)	4 to 64	8 to 16	64 (≈ 152 µM)	8 to 32	32 (≈ 75.9 µM)	MIC ([16]; with inducer 100 μg/ml): 128 µg/mL (≈ 304 µM); MIC ([16]; without inducer): 128 µg/mL (≈ 304 µM); MIC [17]: 256 µg/mL (≈ 607 µM); MIC [19]: 32 to 64 µg/mL; MIC ([18]; with inducer 100 μg/ml): 16 µg/mL (≈ 37.9 µM); MIC ([18]; without inducer): 32 µg/mL (≈ 75.9 µM)
OC[C@H]1O[C@@H](Oc2cc(Cl)ccc2Oc2ccc(Cl)cc2Cl)[C@H](O)[C@@H](O)[C@@H]1O [β-D-Glucoside, triclosan-β-D-glucopyranoside]	0.5 (≈ 1.11 µM)	16 (≈ 35.4 µM)	128 (≈ 283 µM)	256 (≈ 567 µM)	>256	4 (≈ 8.86 µM)	>256	4 to 8	16 (≈ 35.4 µM)	32 (≈ 70.8 µM)	>256	0.5 (≈ 1.11 µM)	0.5 (≈ 1.11 µM)	256 (≈ 567 µM)	>256	0.5 to 1	8 to 16	128 (≈ 283 µM)	16 to 32	16 (≈ 35.4 µM)	MIC ([16]; with inducer 100 μg/ml): 128 µg/mL (≈ 283 µM); MIC ([16]; without inducer): 256 µg/mL (≈ 567 µM); MIC [17]: 256 µg/mL (≈ 567 µM); MIC [19]: 16 to 128 µg/mL; MIC ([18]; with inducer 100 μg/ml): 2 µg/mL (≈ 4.43 µM); MIC ([18]; without inducer): 16 µg/mL (≈ 35.4 µM)
